Data reported in patent US20090232838A1, “Ligands of melanocortin receptors” (priority 2005, published 2009).
Like-named read-outs stand apart in the source and are kept apart here. Where a SMILES comes first, the peptide text is derived from it. Bridges are numbered along the chain shown (N, C = ends). [ ]: non-standard residue; d: D form. 2Nal = N[C@@H](Cc1ccc2ccccc2c1)C(=O)O; d2Nal = N[C@H](Cc1ccc2ccccc2c1)C(=O)O; Aib = CC(C)(N)C(=O)O

Columns and labels:
hMC4-R [1] = target: T1, hMC4-R (Homo sapiens, UniProt P32245); assay: Radioligand binding assay, hMC4-R
T1 construct: expressed in transfected cells; host or cells: CHO-K1
Protocol: Cellular membranes used for the in vitro receptor binding assays were obtained from transgenic CHO-K1 cells stably expressing hMC-R receptor subtypes 1, 3, 4 or 5. […] The pellets were resuspended in the same buffer and centrifuged at 50,000 g for 10 minutes at approximately 4° C. The washed pellets containing the cellular membranes were stored at approximately −80° C.
Filters were washed three times with 50 mM Tris-HCl at p-H 7.4 at a temperature of approximately 0-4° C. and then assayed for radioactivity using a Packard Topcount® scintillation counter. Binding data were analyzed by computer-assisted non-linear regression analysis (XL fit; IDBS).

hMC1-R = target: T2, hMC1-R (Homo sapiens, UniProt Q01726); assay: cyclic AMP bioassay, hMC1-R; assay type: cell-based
T2 construct: expressed in transfected cells; host or cells: CHO-K1
Protocol: Intracellular cyclic AMP (cAMP) levels were determined by an electrochemiluminescence (ECL) assay (Meso Scale Discovery®, Gaithersburg, Md.; referred to hereinafter as MSD). […] Transgenic CHO-K1 cells stably expressing hMC receptor subtypes 1, 3, 4 or 5 were dispensed at a density of approximately 7,000 cells/well in 384-well Multi-Arrays plates (MSD) containing integrated carbon electrodes and coated with anti-CAMP antibody. Increasing concentrations of the test compounds were added and the cells were incubated for approximately 40 minutes at approximately 37° C. […] At the end of the second incubation period read buffer (Tris-buffered solution containing an ECL co-reactant and Triton X-100 at ph 7.8) was added and the cAMP levels in the cell lysates were immediately determined by ECL detection with a Sector Imager 6000 Reader® (MSD). Data were analyzed using a computer-assisted non-linear regression analysis (XL fit; IDBS) and reported as either an EC50 value or a Kb value.
The Kb value reflects the potency of an antagonist and is determined by Schild analysis. In brief, concentration-response curves of an agonist are carried out in the presence of increasing concentrations of an antagonist. […] It is calculated by extrapolating the line on a Schild plot to zero on the y-axis.

hMC3-R = target: T3, hMC3-R (Homo sapiens, UniProt P41968); assay: cyclic AMP bioassay, hMC3-R; assay type: cell-based
T3 construct: expressed in transfected cells; host or cells: CHO-K1

hMC4-R [2] = target: T1, hMC4-R; assay: cyclic AMP bioassay, hMC4-R; assay type: cell-based
hMC5-R = target: T4, hMC5-R (Homo sapiens, UniProt P33032); assay: cyclic AMP bioassay, hMC5-R; assay type: cell-based
T4 construct: expressed in transfected cells; host or cells: CHO-K1
T4 sequence (P33032 whole entry): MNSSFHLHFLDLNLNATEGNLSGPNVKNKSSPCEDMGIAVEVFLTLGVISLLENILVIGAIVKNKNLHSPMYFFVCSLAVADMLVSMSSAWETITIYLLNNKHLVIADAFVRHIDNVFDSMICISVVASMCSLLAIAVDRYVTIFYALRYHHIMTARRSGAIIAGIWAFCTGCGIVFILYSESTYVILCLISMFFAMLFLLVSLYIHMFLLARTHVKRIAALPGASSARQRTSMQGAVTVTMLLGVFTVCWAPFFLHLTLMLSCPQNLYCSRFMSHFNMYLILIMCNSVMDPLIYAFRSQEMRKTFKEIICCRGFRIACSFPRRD

T1 sequence (P32245 whole entry): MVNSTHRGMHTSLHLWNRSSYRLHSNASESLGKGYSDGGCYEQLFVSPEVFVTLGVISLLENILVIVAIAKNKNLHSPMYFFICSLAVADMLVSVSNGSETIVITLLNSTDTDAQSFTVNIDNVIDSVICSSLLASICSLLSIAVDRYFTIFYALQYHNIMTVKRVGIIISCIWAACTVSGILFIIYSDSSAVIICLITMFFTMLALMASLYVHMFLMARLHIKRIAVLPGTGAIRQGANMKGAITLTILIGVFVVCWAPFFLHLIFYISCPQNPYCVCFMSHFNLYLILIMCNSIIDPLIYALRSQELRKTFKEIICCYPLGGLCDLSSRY
T2 sequence (Q01726 whole entry): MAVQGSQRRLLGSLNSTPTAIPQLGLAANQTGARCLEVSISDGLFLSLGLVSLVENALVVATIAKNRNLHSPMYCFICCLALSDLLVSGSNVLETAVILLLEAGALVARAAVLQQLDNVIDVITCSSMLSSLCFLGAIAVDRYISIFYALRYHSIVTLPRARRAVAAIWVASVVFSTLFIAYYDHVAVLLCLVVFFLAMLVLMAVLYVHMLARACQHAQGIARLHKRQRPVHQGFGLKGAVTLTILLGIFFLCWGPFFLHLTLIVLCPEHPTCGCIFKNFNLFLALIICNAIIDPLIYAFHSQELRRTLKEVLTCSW
T3 sequence (P41968 whole entry): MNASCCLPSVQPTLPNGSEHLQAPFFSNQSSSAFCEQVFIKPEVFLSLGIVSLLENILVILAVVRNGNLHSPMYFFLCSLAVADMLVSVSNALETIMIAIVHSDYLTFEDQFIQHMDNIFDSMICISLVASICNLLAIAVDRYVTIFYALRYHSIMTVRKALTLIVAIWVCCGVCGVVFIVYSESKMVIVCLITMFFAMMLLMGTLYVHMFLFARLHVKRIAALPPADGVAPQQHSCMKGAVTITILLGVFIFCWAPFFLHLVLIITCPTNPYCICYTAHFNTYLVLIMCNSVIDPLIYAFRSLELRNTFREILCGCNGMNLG

| SMILES | Ki (hMC4-R [1]) [nM] | EC50 (hMC1-R) [nM] | Kb (hMC3-R) [nM] | Kb (hMC4-R [2]) [nM] | EC50 (hMC5-R) [nM] | Ki (hMC4-R [1]; read-out: Ki hMC4-R) [nM] | Kb (hMC3-R; Table 3A, cAMP in CHO-K1 cells, antagonist potency by Schild analysis, read-out: Kb hMC3-R) [nM] | Kb (hMC4-R [2]; Table 3A, cAMP in CHO-K1 cells, antagonist potency by Schild analysis, read-out: Kb hMC4-R) [nM] |
| --- | --- | --- | --- | --- | --- | --- | --- | --- |
| CC(=O)N[C@H]1CSSC[C@@H](C(=O)N2CCC[C@H]2C(=O)N2CCC[C@H]2C(=O)N[C@@H](CCCNC(=N)N)C(=O)N[C@@H](CC(=O)O)C(=O)NCCC(=O)N[C@@H](CCCNC(=N)N)C(=O)N[C@@H](CCCNC(=N)N)C(=O)N[C@@H](CCCNC(=N)N)C(=O)N[C@@H](CCCNC(=N)N)C(=O)N[C@@H](CCCNC(=N)N)C(=O)N[C@@H](CCC(N)=O)C(=O)N[C@@H](CCCNC(=N)N)C(=O)N[C@@H](CCCNC(=N)N)C(=O)N[C@@H](CCCNC(=N)N)C(N)=O)NC(=O)[C@H](C)NC(=O)[C@H](Cc2cccc3ccccc23)NC(=O)[C@H](CCCNC(=N)N)NC(=O)[C@@H](Cc2ccc3ccccc3c2)NC(=O)[C@H](Cc2c[nH]cn2)NC(=O)[C@H](CCC(=O)O)NC1=O | 0.293 | 144 | 116 | 8.93 | 819 |  |  |  |
| CC(=O)N[C@H]1CSSC[C@@H](C(=O)N2CCC[C@H]2C(=O)N2CCC[C@H]2C(=O)N[C@@H](CCCCN)C(=O)N[C@@H](CC(=O)O)C(N)=O)NC(=O)C(C)(C)NC(=O)[C@H](Cc2ccc3ccccc3c2)NC(=O)[C@H](CCCNC(=N)N)NC(=O)[C@@H](Cc2ccc3ccccc3c2)NC(=O)[C@H](Cc2c[nH]cn2)NC(=O)[C@H](CCC(=O)O)NC1=O [Ac-c(Cys-Glu-His-D-2-Nal-Arg-2-Nal-Aib-Cys)-Pro-Pro-Lys-Asp-NH2] (Ac-CEH[d2Nal]R[2Nal][Aib]CPPKD-NH2; disulfide 1-8) | 5.87 | 770 | 221 | 4.52 | 869 |  |  |  |
| CCCC[C@H](N)C(=O)N[C@H]1CC(=O)NCCCC[C@@H](C(=O)NCCOCCOCC(=O)NCCOCCOCC(=O)N[C@@H](Cc2ccc(O)cc2)C(=O)NCC(=O)N[C@@H](CCCNC(=N)N)C(=O)N[C@@H](CCCCN)C(=O)N[C@@H](CCCCN)C(=O)N[C@@H](CCCNC(=N)N)C(=O)N[C@@H](CCCNC(=N)N)C(=O)N[C@@H](CCC(N)=O)C(=O)N[C@@H](CCCNC(=N)N)C(=O)N[C@@H](CCCNC(=N)N)C(=O)N[C@@H](CCCNC(=N)N)C(N)=O)NC(=O)[C@H](Cc2c[nH]c3ccccc23)NC(=O)[C@H](CCCNC(=N)N)NC(=O)[C@@H](Cc2ccc3ccccc3c2)NC(=O)[C@H](Cc2c[nH]cn2)NC1=O |  |  |  |  |  | 6 | 261 | 3.11 |
| CC(=O)N[C@H]1CSSC[C@@H](C(=O)N2CCC[C@H]2C(=O)N2CCC[C@H]2C(=O)N[C@@H](CCCCN)C(=O)N[C@@H](CC(=O)O)C(=O)NCCC(=O)N[C@@H](Cc2ccc(O)cc2)C(=O)NCC(=O)N[C@@H](CCCNC(=N)N)C(=O)N[C@@H](CCCCN)C(=O)N[C@@H](CCCCN)C(=O)N[C@@H](CCCNC(=N)N)C(=O)N[C@@H](CCCNC(=N)N)C(=O)N[C@@H](CCC(N)=O)C(=O)N[C@@H](CCCNC(=N)N)C(=O)N[C@@H](CCCNC(=N)N)C(=O)N[C@@H](CCCNC(=N)N)C(N)=O)NC(=O)[C@H](C)NC(=O)[C@H](Cc2ccc3ccccc3c2)NC(=O)[C@H](CCCNC(=N)N)NC(=O)[C@@H](Cc2ccc3ccccc3c2)NC(=O)[C@H](Cc2c[nH]cn2)NC(=O)[C@H](CCC(=O)O)NC1=O |  | 29.7 | 25.6 | 7.37 | 82.9 |  |  |  |
| CC(=O)N[C@H]1CSSC[C@@H](C(=O)N2CCC[C@H]2C(=O)N2CCC[C@H]2C(=O)N[C@@H](CCCCN)C(=O)N[C@@H](CC(=O)O)C(=O)NCCC(=O)N[C@@H](CCCNC(=N)N)C(=O)N[C@@H](CCCCN)C(=O)N[C@@H](CCCNC(=N)N)C(=O)N[C@@H](CCCNC(=N)N)C(=O)N[C@@H](CCCNC(=N)N)C(=O)N[C@@H](CCC(N)=O)C(=O)N[C@@H](CCCNC(=N)N)C(=O)N[C@@H](CCCNC(=N)N)C(=O)N[C@@H](CCCNC(=N)N)C(N)=O)NC(=O)[C@H](C)NC(=O)[C@H](Cc2cccc3ccccc23)NC(=O)[C@H](CCCNC(=N)N)NC(=O)[C@@H](Cc2ccc3ccccc3c2)NC(=O)[C@H](Cc2c[nH]cn2)NC(=O)[C@H](CCC(=O)O)NC1=O |  | 33.1 | 65.1 | 15.3 | 1720 |  |  |  |
| CC(=O)N[C@H]1CSSC[C@@H](C(=O)N2CCC[C@H]2C(=O)N2CCC[C@H]2C(=O)N[C@@H](CCCCN)C(=O)N[C@@H](CC(=O)O)C(=O)NCCC(=O)N[C@@H](CCCNC(=N)N)C(=O)N[C@@H](CCCCN)C(=O)N[C@@H](CCCNC(=N)N)C(=O)N[C@@H](CCCNC(=N)N)C(=O)N[C@@H](CCCNC(=N)N)C(=O)N[C@@H](CCC(N)=O)C(=O)N[C@@H](CCCNC(=N)N)C(=O)N[C@@H](CCCNC(=N)N)C(=O)N[C@@H](CCCNC(=N)N)C(N)=O)NC(=O)[C@H](C)NC(=O)[C@H](Cc2ccc3ccccc3c2)NC(=O)[C@H](CCCNC(=N)N)NC(=O)[C@@H](Cc2ccc3ccccc3c2)NC(=O)[C@H](Cc2c[nH]cn2)NC(=O)[C@H](CCC(=O)O)NC1=O |  | 23.7 | 9.22 | 5.87 | 39.7 |  |  |  |
